Patent publication US9994617B2, “Modulation of structured polypeptide specificity” (BICYCLE THERAPEUTICS LIMITED, priority 2011, dated 2018)
Numbered stars: 1 amine (or outer) side, 2 acyl side, 3 side chain; on linkers, the order of the positions; unused ones are H or OH. Bridge positions count the residues as written; N and C are the ends. Square brackets hold non-standard residues; d marks the D form. Peptide text beside a SMILES is read from it. TBMB = c1c(C[*:1])cc(C[*:3])cc1C[*:2]; NMeS = CN[C@@H](CO)C(=O)O; NMeA = CN[C@@H](C)C(=O)O

Molecular target: human plasma kallikrein (hPK) (Homo sapiens, UniProt P03952)
Experiment: Enzyme inhibition assay, human plasma kallikrein
Settings: not given

First: CC(=O)N[C@H]1CSCc2cc3cc(c2)CSC[C@H](NC(=O)C[C@H](CCCNC(=N)N)NC(=O)[C@H](C)NC(=O)[C@@H]2CCCN2C(=O)[C@H](Cc2c[nH]c4ccccc24)NC(=O)[C@H](CO)NC1=O)C(=O)N[C@@H](CC(C)C)C(=O)N[C@@H](Cc1c[nH]cn1)C(=O)N[C@@H](CCC(N)=O)C(=O)N[C@@H](CC(=O)O)C(=O)N[C@@H](CC(C)C)C(=O)N[C@H](C(N)=O)CSC3 [Ac-(06-34-18) βhomoArg5]
Second: CC(=O)N[C@H]1CSCc2cc3cc(c2)CSC[C@H](NC(=O)[C@H](CCCNC(=N)N)NC(=O)[C@H](C)NC(=O)[C@@H]2CCCN2C(=O)[C@@H](Cc2c[nH]c4ccccc24)NC(=O)[C@H](CO)NC1=O)C(=O)N[C@@H](CC(C)C)C(=O)N[C@@H](Cc1c[nH]cn1)C(=O)N[C@@H](CCC(N)=O)C(=O)N[C@@H](CC(=O)O)C(=O)N[C@@H](CC(C)C)C(=O)N[C@H](C(N)=O)CSC3 [Ac-(06-34-18) D-Trp2]
The Ki of the first is 920-fold lower: 8.2 nM for the first, 7560 nM for the second. The first binds more tightly here.

First: CC(C)[C@@H]1NC(=O)[C@H](CCCNC(=N)N)NC(=O)[C@@H]2CSCc3cc(cc(c3)CSC[C@@H](C(=O)N[C@@H](C)C(N)=O)NC(=O)[C@H](C)NC1=O)CSC[C@H](NC(=O)[C@H](C)N)C(=O)N[C@@H](Cc1ccccc1)C(=O)N1CCC[C@H]1C(=O)N[C@@H](CCCCN)C(=O)N2 [Peptide 3A3] (H-ACFPKCRVACA-NH2; linker 2-6-10 via TBMB)
Second: CC[C@H](C)[C@@H]1NC(=O)[C@H](C(C)C)NC(=O)[C@H](CCCNC(=N)N)NC(=O)[C@@H]2CSCc3cc(cc(c3)CSC[C@@H](C(=O)N[C@@H](C)C(N)=O)NC1=O)CSC[C@H](NC(=O)[C@H](C)N)C(=O)N[C@@H](Cc1ccccc1)C(=O)N[C@@H](CC(=O)O)C(=O)N1CCC[C@H]1C(=O)N2 [Peptide 3B9] (H-ACFDPCRVICA-NH2; linker 2-6-10 via TBMB)
The Ki of the first is 2.1-fold lower: 43.1 nM for the first, 90.8 nM for the second. The first binds more tightly here.

Compared with `CC(=O)N[C@H]1CSCc2cc3cc(c2)CSC[C@H](NC(=O)[C@H](CCCNC(=N)N)NC(=O)[C@H](C)N(C)C(=O)[C@@H]2CCCN2C(=O)[C@H](Cc2c[nH]c4ccccc24)NC(=O)[C@H](CO)N(C)C1=O)C(=O)N[C@@H](CC(C)C)C(=O)N[C@@H](Cc1c[nH]cn1)C(=O)N[C@@H](CCC(N)=O)C(=O)N[C@@H](CC(=O)O)C(=O)N[C@@H](CC(C)C)C(=O)N[C@H](C(N)=O)CSC3` [Ac-(06-34-18) NMeSer1, NMeAla4] (Ac-C[NMeS]WP[NMeA]RCLHQDLC-NH2; linker 1-7-13 via TBMB), `CC(=O)N[C@H]1CSCc2cc3cc(c2)CSC[C@H](NC(=O)[C@H](CCCNC(=N)N)NC(=O)[C@H](C)NC(=O)[C@@H]2CCCN2C(=O)[C@H](Cc2c[nH]c4ccccc24)NC(=O)[C@H](CO)N(C)C1=O)C(=O)N[C@@H](CC(C)C)C(=O)N[C@@H](Cc1c[nH]cn1)C(=O)N[C@@H](CCC(N)=O)C(=O)N[C@@H](CC(=O)O)C(=O)N[C@@H](CC(C)C)C(=O)N[C@H](C(N)=O)CSC3` [Ac-(06-34-18) NMeSer1] (Ac-C[NMeS]WPARCLHQDLC-NH2; linker 1-7-13 via TBMB) is 890-fold lower in Ki: 444 nM for the first, 0.5 nM for the second. The second binds more tightly here.

Compared with `CC(=O)N[C@H]1CSCc2cc3cc(c2)CSC[C@H](NC(=O)[C@H](CCCNC(N)=O)NC(=O)[C@H](C)NC(=O)[C@@H]2CCCN2C(=O)[C@H](Cc2c[nH]c4ccccc24)NC(=O)[C@H](CO)NC1=O)C(=O)N[C@@H](CC(C)C)C(=O)N[C@@H](Cc1c[nH]cn1)C(=O)N[C@@H](CCC(N)=O)C(=O)N[C@@H](CC(=O)O)C(=O)N[C@@H](CC(C)C)C(=O)N[C@H](C(N)=O)CSC3` [Ac-(06-34-18) CitS], `CC(=O)N[C@H]1CSCc2cc3cc(c2)CSC[C@H](NC(=O)[C@H](CCCNC(=N)N)NC(=O)[C@H](C)NC(=O)[C@H]2CCCN2C(=O)[C@H](Cc2c[nH]c4ccccc24)NC(=O)[C@H](CO)NC1=O)C(=O)N[C@@H](CC(C)C)C(=O)N[C@@H](Cc1c[nH]cn1)C(=O)N[C@@H](CCC(N)=O)C(=O)N[C@@H](CC(=O)O)C(=O)N[C@@H](CC(C)C)C(=O)N[C@H](C(N)=O)CSC3` [Ac-(06-34-18) D-Pro3] is 12-fold lower in Ki: 7860 nM for the first, 680 nM for the second. The second binds more tightly here.

Compared with `C[C@H](N)C(=O)N[C@H]1CSCc2cc3cc(c2)CSC[C@H](NC(=O)[C@H](CC(N)=O)NC(=O)[C@H](CC(N)=O)NC(=O)[C@H](Cc2ccc(O)cc2)NC(=O)CNC(=O)CNC1=O)C(=O)N[C@@H](CCCNC(=N)N)C(=O)N[C@@H](C)C(=O)N[C@@H](Cc1ccccc1)C(=O)N[C@@H](CO)C(=O)N[C@@H](Cc1ccc(O)cc1)C(=O)N[C@H](C(=O)N[C@@H](C)C(N)=O)CSC3` [Peptide 1F7] (H-ACGGYNNCRAFSYCA-NH2; linker 2-8-14 via TBMB), `CC(C)[C@@H]1NC(=O)[C@H](CCCNC(=N)N)NC(=O)[C@@H]2CSCc3cc(cc(c3)CSC[C@@H](C(=O)N[C@@H](C)C(N)=O)NC(=O)[C@H](CC(N)=O)NC1=O)CSC[C@H](NC(=O)[C@H](C)N)C(=O)N[C@@H](Cc1ccccc1)C(=O)N[C@@H](CCCCN)C(=O)N[C@@H](CC(N)=O)C(=O)N2` [Peptide 3B2] (H-ACFKNCRVNCA-NH2; linker 2-6-10 via TBMB) is 4.1-fold higher in Ki: 2.2 nM for the first, 9 nM for the second. The first binds more tightly here.

Going from `CC(=O)N[C@H]1CSCc2cc3cc(c2)CSC[C@H](NC(=O)[C@H](CCCNC(=N)N)NC(=O)[C@@H]2CCCN2C(=O)[C@H](CO)NC(=O)[C@H](C)NC(=O)[C@H](Cc2c[nH]c4ccccc24)NC1=O)C(=O)N[C@@H](CC(C)C)C(=O)N[C@@H](Cc1c[nH]cn1)C(=O)N[C@@H](CCC(N)=O)C(=O)N[C@@H](CC(=O)O)C(=O)N[C@@H](CC(C)C)C(=O)N[C@H](C(N)=O)CSC3` [Ac-(06-34-18) Scram2] (Ac-CWASPRCLHQDLC-NH2; linker 1-7-13 via TBMB) to `CC(=O)N[C@H]1CSCc2cc3cc(c2)CSC[C@@H](NC(=O)[C@H](CCCNC(=N)N)NC(=O)[C@H](C)NC(=O)[C@@H]2CCCN2C(=O)[C@H](Cc2c[nH]c4ccccc24)NC(=O)[C@H](CO)NC1=O)C(=O)N[C@@H](CC(C)C)C(=O)N[C@@H](Cc1c[nH]cn1)C(=O)N[C@@H](CCC(N)=O)C(=O)N[C@@H](CC(=O)O)C(=O)N[C@@H](CC(C)C)C(=O)N[C@H](C(N)=O)CSC3` [Ac-(06-34-18) D-Cys2], the Ki falls from 11400 nM to 234 nM (49-fold).

First: CC(C)[C@@H]1NC(=O)[C@H](CCCNC(=N)N)NC(=O)[C@@H]2CSCc3cc(cc(c3)CSC[C@@H](C(=O)N[C@@H](C)C(N)=O)NC(=O)[C@H](CC(N)=O)NC1=O)CSC[C@H](NC(=O)[C@H](C)N)C(=O)N[C@@H](Cc1ccccc1)C(=O)N[C@@H](CC(N)=O)C(=O)N[C@@H](CCCCN)C(=O)N2 [Peptide 06-64] (H-ACFNKCRVNCA-NH2; linker 2-6-10 via TBMB)
Second: CC(=O)N[C@H]1CSCc2cc3cc(c2)CSC[C@H](NC(=O)[C@@H](CCCNC(=N)N)NC(=O)[C@H](C)NC(=O)[C@@H]2CCCN2C(=O)[C@H](Cc2c[nH]c4ccccc24)NC(=O)[C@H](CO)NC1=O)C(=O)N[C@@H](CC(C)C)C(=O)N[C@@H](Cc1c[nH]cn1)C(=O)N[C@@H](CCC(N)=O)C(=O)N[C@@H](CC(=O)O)C(=O)N[C@@H](CC(C)C)C(=O)N[C@H](C(N)=O)CSC3 [Ac-(06-34-18) D-Arg5]
The Ki of the first is 11-fold lower: 4.8 nM for the first, 52 nM for the second. The first binds more tightly here.

Compound `CC(=O)N[C@H]1CSCc2cc3cc(c2)CSC[C@H](NC(=O)[C@H](CNC(=N)N)NC(=O)[C@H](C)NC(=O)[C@@H]2CCCN2C(=O)[C@H](Cc2c[nH]c4ccccc24)NC(=O)[C@H](CO)NC1=O)C(=O)N[C@@H](CC(C)C)C(=O)N[C@@H](Cc1c[nH]cn1)C(=O)N[C@@H](CCC(N)=O)C(=O)N[C@@H](CC(=O)O)C(=O)N[C@@H](CC(C)C)C(=O)N[C@H](C(N)=O)CSC3` [Ac-(06-34-18) Agp5] has a Ki of 1770 nM.

Same assay, conditions: versus Ac-06-34-18(TMB)-NH2

Going from `CC(=O)N[C@H]1CSCc2cc3cc(c2)CSC[C@H](NC(=O)[C@H](CCCNC(=N)N)NC(=O)[C@H](C)NC(=O)[C@@H]2CCCN2C(=O)[C@@H](Cc2c[nH]c4ccccc24)NC(=O)[C@H](CO)NC1=O)C(=O)N[C@@H](CC(C)C)C(=O)N[C@@H](Cc1c[nH]cn1)C(=O)N[C@@H](CCC(N)=O)C(=O)N[C@@H](CC(=O)O)C(=O)N[C@@H](CC(C)C)C(=O)N[C@H](C(N)=O)CSC3` [Ac-(06-34-18) D-Trp2] to `CC(=O)N[C@H]1CSCc2cc3cc(c2)CSC[C@H](NC(=O)[C@@H](CCCNC(=N)N)NC(=O)[C@H](C)NC(=O)[C@@H]2CCCN2C(=O)[C@H](Cc2c[nH]c4ccccc24)NC(=O)[C@H](CO)NC1=O)C(=O)N[C@@H](CC(C)C)C(=O)N[C@@H](Cc1c[nH]cn1)C(=O)N[C@@H](CCC(N)=O)C(=O)N[C@@H](CC(=O)O)C(=O)N[C@@H](CC(C)C)C(=O)N[C@H](C(N)=O)CSC3` [Ac-(06-34-18) D-Arg5], the “fold reduction in affinity to kallikrein compared to wildtype peptide” value falls from 45000 fold to 300 fold.
